Earlier results on one molecule are cited in patent publication US7932083B2, “DNA participating in hydroxylation of macrolide compound” (priority 2003, dated 2011).

Structures are written as SMILES.

For the data set the following is noted: statement of prior art (WO02/060890).

`CCC(O)C(C)C1OC1CC(C)(O)/C=C/C=C(\C)C1OC(=O)CC(O)CCC(C)(O)C(OC(C)=O)/C=C/C1C` (stereo not shown) [11107D]: the antitumor activity result was “excellent antitumor activity”.
